Ends that are not written are not given here.
Assays:
[1] = system: atherosclerotic coronary artery; assay: Coronary atherosclerosis by IVUS in individuals with acute coronary syndrome; assay type: in vivo, human; details: iv weekly for 5 to 8 weeks, on stable hypolipidemic drug therapy
Source text: Individuals with acute coronary syndrome and documented atherosclerosis have a cardiac catherization with intravascular ultrasound (IVUS) to document coronary atherosclerosis of 20 to 50% obstruction in the target artery. Each individual is on stable hypolipidemic drug therapy and receives an acceptable dose of a peptide of the present invention and/or an associated fragment iv weekly for a period of 5 to 8 weeks. A repeat IVUS measurement is made at the end of the treatment period to assess the effect of the peptide infusion on coronary atherosclerosis in the target vessel.

[2] = system: FU5AH rat hepatoma cells (SR-B1); assay: SR-B1 mediated cholesterol efflux; assay type: cell-based; details: peptide samples run at 30 μg/ml
Source text: (§1) The methods employed in this study have been described in U.S. Pat. Nos. 7,029,863, 7,060,452, U.S. Patent Application Publication No. 2005/0191715, and in Moya et al., Arteriosclerosis & Thrombosis 1994:14:1056-1065 and Liu et al., J. Biol. Chem., 2003:278(44), 42976-42984. SR-B1 mediated cholesterol efflux is examined in FU5AH rat hepatoma cells and ABCA1 mediated cholesterol efflux is examined in J774 mouse macrophage cells as described in these references.

[3] = system: J774 mouse macrophage cells (ABCA1); assay: ABCA1 mediated cholesterol efflux; assay type: cell-based; details: peptide samples run at 30 μg/ml
Source text: as §1

[4] = system: CD11b; assay: CD11b expression in stimulated monocytes by flow cytometry; assay type: cell-based; details: human monocytes, 1 μmol/L PMA, 20 μg/ml apoA-1 or peptide
Procedure: Monocyte Isolation Peripheral whole blood (PWB) is drawn from healthy consenting individuals into syringes containing sodium citrate (final concentration—19.2 mM). Resting human monocytes are isolated from PWB by density centrifugation with Lymphoprep (Axis Shield). Mononuclear cells (MNCs) are collected and monocytes are further separated to purity using the Dynal negative isolation kit (Invitrogen). Monocytes are resuspended in phosphate buffered saline (PBS) and cell number is determined counting cell suspension on an automated hematology analyzer (Sysmex, KX-21N, USA). Purification of HDL and apoA-1 Human plasma apoA-1 is isolated as previously described and the purity determined using total mass spectrometry. Flow Cytometry 100 μL of monocytes are stimulated with either 1 μmol/L phorbol-myristate-acetate (PMA) or 1 μg/ml lipopolysaccharide (LPS) (Sigma, Australia) in the presence or absence of apoA-1 (20 μg/ml), or 20 μg/ml of the test peptides of the present invention. SEQ ID NOs: 72, 80, 89, 354, 355 and 372 are also tested individually. The cells are incubated with the FITC conjugated antibody to either the active epitope of CD11b (eBiosciences, USA, Clone CBRM1/5) or total CD11b (Serotec, USA, Clone ICRF44) for 15 min at 37° C. Cells are then fixed with 4% paraformaldehyde. Samples are controlled for by using the appropriately matched isotype matched negative control (FITC-anti-mouse IgG) (Serotec, USA, Clone W3/25). CD11b expression is measured by flow cytometry using FACS Calibur (Becton Dickinson). Analysis is conducted using the Cell Quest Pro software. Statistical Analysis Values are presented as the mean ±SD or percentage of control ±SD. FACS results are analyzed for statistical significance using one-way ANOVA followed by Bonferroni post-hoc test. Significance is accepted at P<0.05. […] The combined effects of increasing cholesterol efflux and decreasing inflammation indicate that the peptides of the present invention effectively mimic the function of Apo AI and will decrease atherosclerosis.

[5] = system: apoE knockout and LDL-receptor knockout mice; assay: Aortic atherosclerosis after ip peptide injection in ApoE knockout and LDL receptor knockout mice; assay type: in vivo, mouse; details: 30 mg/kg ip three times per week, 4-5 or 8-10 weeks; 'proposed studies'
Procedure: ApoE knockout and LDL receptor knockout mice, two well established animal models for the study of atherosclerosis, are injected with either saline as control or the synthetic peptides of the present invention to ascertain if these peptides can be used to increase HDL and decrease atherosclerosis.
The mice receive 3 injections per week for either […] or 8-10 weeks. After the completion of the injection, the amount of hardening of the arteries or atherosclerosis is determined in the control injected animals and peptide injected animals to determine if the injections of the synthetic peptide decreased development of atherosclerosis.
The proposed studies test if intraperitoneal infusions of the apoA-I mimetic peptides of the present invention result in decreased aortic atherosclerosis in apoE and LDL receptor knockout mice, two well established mouse models of atherosclerosis.
Four to six week old C57B1/6 mice, apoE knockout (JAX 2052) and LDL-receptor knockout (JAX 2207) mice, all in the C57B1/6 background, are obtained from Jackson Laboratories. During the entire study, C57B1/6 and apoE knockout mice are maintained on a regular chow diet (0.02% cholesterol, 3% fat) and LDL-receptor mice are maintained on a Western diet (TD88137; Harlan Teklad; Madison, Wis. —containing 0.20% cholesterol and 21% fat).
In the first study (Infusion Study A), C57B1/6 mice as well as apoE knockout and LDL receptor knockout mice are injected by the intraperitoneal (ip) route or intravenous (iv) route with synthetic peptides of the present invention mimetic (30 mg/kg) on up to four different occasions two weeks apart. To evaluate changes in the plasma lipid and lipoprotein profile associated with injection of the synthetic peptide, blood for lipid analyses is obtained before and at 2, 4, 6, 24 and 48 hours after peptide injection. At the end of the study the animals are sacrificed.
For infusion studies B and C, mice are injected ip with either placebo or a synthetic peptide of the present invention (30 mg/kg) three times per week for either 4 to 5 weeks (Infusion Study B) or 8 to 10 weeks (Infusion Study C). Blood for lipid and lipoprotein analyses is obtained at the beginning of the study (day 0) and every two weeks after placebo/peptide injection and at the completion of the study. At the completion of the study (4 to 5 weeks for Infusion Study B and 8 to 10 weeks for Infusion Study C), the animals are sacrificed, organs harvested for analyses of cholesterol content and for aortic atherosclerosis.
For Infusion Study A, 5 four to six week old C57B1/6, apoE knockout (JAX 2052) and LDL receptor knockout (JAX 2207) control mice receive ip or iv injections of the synthetic peptide of the present invention for up to four times two weeks apart. The sequence of procedures for this study is as follows: • 1) Mice are first anaesthetized by using 1-3% isoflurane by inhalation prior to each ip injection to insure appropriate and complete delivery of placebo/peptide. • 2) Mice are injected with either placebo (0.2 ml saline) or apoA-I synthetic peptide (30 mg/kg in 0.2 ml saline) via either the intraperitoneal or intravenous route. • 3) In order to evaluate changes in the plasma lipids and lipoproteins in the time-frame between injections, each mouse in this study group is bled from the retro-orbital sinus following administration of a topical anesthesia. before and at 2, 4, 6, 24 and 48 hours after the peptide injection. No more than 300 ul blood is drawn during this 48 hour period. • 4) At the end of infusion study A all mice are sacrificed by using Avertin (2.5%, 0.011 ml/gm, ip) or ketamine (80 ug/gm, ip). […]

Row | Substance | plaque in the atherosclerotic coronary artery (IVUS) [1] | effect on cholesterol efflux from the Fu5AH cells (SRB1 pathway) [2] | efflux of cholesterol from J774 macrophage cells (ABCA1 pathway) [3] | PMA induced CD11b expression [4] | aortic atherosclerosis compared to controls [5]
1 | Ac-Gly Glu Glu Met Arg Asp Arg Ala Arg Ala His Val Asp Ala Leu Arg Thr His Ala Lys Pro Val Leu Leu Glu Ser Phe Lys Val Ser Phe Leu Ser Ala Leu Glu Glu Tyr Thr Lys Lys-NH2 (Ac-GEEMRDRARAHVDALRTHAKPVLLESFKVSFLSALEEYTKK-NH2) [SEQ ID NO:354] | reduce plaque in the atherosclerotic coronary artery | negligible or no effect | stimulate efflux of cholesterol | significantly reduce PMA induced CD11b expression | decrease aortic atherosclerosis compared to controls
2 | Ac-Leu Glu Ser Ala Lys Val Ser Ala Leu Ser Ala Leu Glu Glu Ala Thr Lys Lys Ala Lys Pro Val Leu Leu Glu Ser Phe Lys Val Ser Phe Leu Ser Ala Leu Glu Glu Tyr Thr Lys Lys-NH2 (Ac-LESAKVSALSALEEATKKAKPVLLESFKVSFLSALEEYTKK-NH2) [SEQ ID NO:372] | reduce plaque in the atherosclerotic coronary artery | negligible or no effect | stimulate efflux of cholesterol | significantly reduce PMA induced CD11b expression | decrease aortic atherosclerosis compared to controls
3 | Ac-Ser Asp Glu Leu Arg Gln Arg Leu Ala Ala Arg Leu Glu Ala Leu Lys Glu Asn Ala Lys Pro Val Leu Leu Glu Ser Phe Lys Val Ser Phe Leu Ser Ala Leu Glu Glu Tyr Thr Lys Lys-NH2 (Ac-SDELRQRLAARLEALKENAKPVLLESFKVSFLSALEEYTKK-NH2) [SEQ ID NO:355] | reduce plaque in the atherosclerotic coronary artery | negligible or no effect | stimulate efflux of cholesterol | significantly reduce PMA induced CD11b expression | decrease aortic atherosclerosis compared to controls
4 | GEEMRDRARAHVDALRTHAKPVLLESFKVSFLSALEEYTKK [SEQ ID NO:72] | reduce plaque in the atherosclerotic coronary artery | negligible or no effect | stimulate efflux of cholesterol | significantly reduce PMA induced CD11b expression | decrease aortic atherosclerosis compared to controls
5 | LESAKVSALSALEEATKKAKPVLLESFKVSFLSALEEYTKK [SEQ ID NO:89] | reduce plaque in the atherosclerotic coronary artery | negligible or no effect | stimulate efflux of cholesterol | significantly reduce PMA induced CD11b expression | decrease aortic atherosclerosis compared to controls
6 | SDELRQRLAARLEALKENAKPVLLESFKVSFLSALEEYTKK [SEQ ID NO:80] | reduce plaque in the atherosclerotic coronary artery | negligible or no effect | stimulate efflux of cholesterol | significantly reduce PMA induced CD11b expression | decrease aortic atherosclerosis compared to controls
